Test results from US20260345723A1, “Treatments for Opioid-Induced Respiratory Depression” (priority 2023, published 2026).
Read-outs that look alike come from different tables or passages of the source.

Columns and labels:
[1] = test system: sucrose self-administration; experiment: Sucrose self-administration (FR and PR); type: in vivo, rat (male Sprague Dawley); details: RAP-103 1 mg/kg IP; P>0.05 vs saline
Description: Adult male Sprague Dawley (226-275 g) were purchased from Taconic Laboratories and maintained on a 12-hour/12-hour light/dark cycle with the lights off at 9:30 a.m. in a temperature- and humidity-controlled animal care facility. For the duration of the experiment, rats were housed two per cage and given unrestricted access to food and water at all times when in the home cage.
Progressive ratio (PR) schedules of drug delivery are used to determine the ‘motivational’ state of an animal and drug reinforcing efficacy. A progressive ratio (PR) schedule requires the subject to perform an increasing number of lever presses for the next successive presentation of a reinforcer (e.g., heroin or sucrose). […] BP is a dependent measure used to quantify the degree to which the subject will work to get the next administration of the drug which serves as a reinforcer in the self-administration paradigm. […]
Subjects were given access to self-administer sucrose pellets for 12-14 d for 2 h each day. […] All responses were recorded using the Med-Associates software. […]
Respiratory depression data were analyzed by two-way ANOVA (RAP-103 pretreatment×morphine treatment) followed by a Bonferroni's multiple comparison test. Physical dependence data were analyzed by a Student's t-test. […] SA PR challenge data were analyzed by a Student's t-test. […]

[2] = test system: tyrosine hydroxylase (TH); experiment: TH protein levels in mesolimbic pathway, morphine abstinence (Western blot); type: in vivo, rat; details: RAP-103 + morphine, vs drug-naïve (P<0.05) and morphine only (P<0.01)
Protocol: For 10 d, rats were given two injections during the dark cycle. One injection (RAP-103 [1 mg/kg] or saline) was delivered IP, and 5 min later the second injection (morphine [5 mg/kg] or saline) was given SC. Brain tissue was collected 24 h after the last morphine or saline injection for protein analysis of chemokine and opioid markers in the ventral tegmental area (VTA), nucleus accumbens (NAC) and prefrontal cortex (PFC).
For immunoblotting experiments, tissue lysates were obtained using RIPA buffer, and were then homogenized. Samples were centrifuged for 15 minutes at 12,000 g. Supernatant were transferred to new tubes. […] Immunoreactive bands were quantified by Image Studio (Licor Ver 2.0) and normalized to the bands of GAPDH. […]
Respiratory depression data were analyzed by two-way ANOVA (RAP-103 pretreatment×morphine treatment) followed by a Bonferroni's multiple comparison test. Physical dependence data were analyzed by a Student's t-test. Self-administration (SA) time-course data for heroin and sucrose were analyzed by two-way ANOVA (RAP-103 treatment x day) followed by a Bonferroni's multiple comparison test. SA PR challenge data were analyzed by a Student's t-test. Protein and mRNA data were analyzed by two-way ANOVA (RAP-103 pretreatment x morphine treatment) followed by a Newman-Keuls post-hoc analysis. […]

[3] = type: in vivo, Rhesus macaque (Macaca mulatta); details: seven days
[4] = test system: opioid-induced respiratory depression; experiment: Example 4: treatment of a subject prescribed a high level of opioids; type: in vivo, human; details: oral pill, concurrent with opioids
Description: A subject is prescribed a high level of opioids to treat a pain. The subject is concurrently administered RAP-103 to treat opioid-induced respiratory depression. RAP-103 is orally administered to the subject as a pill to treat the opioid-induced respiratory depression. After administration, the subject has no change in their respiratory rate and blood oxygen levels (e.g., maintains full respiratory function).

CXCR4 [5] = test system: CXCR4
[6] = test system: mu-opioid receptor (OPRM1)
CCR5 = details: cited from earlier work
CCR8 = details: cited from earlier work
CXCR4 [7] = details: cited from earlier work
neuropathic pain = details: previous research; cited from earlier work
[8] = RAP-103 only vs drug-naïve, P>0.05
[9] = RAP-103/morphine exposure, P>0.05

D-Thr-D-Thr-D-Asn-D-Tyr-D-Thr [RAP-103]
sucrose PR breakpoints [1]: not significantly different | sucrose-taking (FR-1 SA) [1]: not significantly different | TH protein levels, PFC [2]: significantly elevated | acute toxicity [3]: no acute toxicity | body weights [3]: no RAP-103-related changes | clinical observations [3]: no RAP-103-related changes | blood oxygen levels [4]: no change | respiratory rate [4]: no change | CXCR4 protein levels, VTA (CXCR4 [5]; RAP-103 1 mg/kg IP + morphine): did not alter morphine enhancement of CCR2 or CXCR4 | CXCR4 protein levels, NAC (CXCR4 [5]; [8]): did not display significantly different levels | CXCR4 protein levels, VTA (CXCR4 [5]; [8]): not significantly different | OPRM1 protein levels, PFC ([6]; RAP-103 + morphine, vs drug-naïve (P<0.01) and morphine only (P<0.05)): significantly elevated | OPRM1 protein levels, VTA ([6]; RAP-103 pretreatment 1 mg/kg IP + morphine, P<0.05): normalized the morphine-induced enhancement in OPRM1 levels | GFAP mRNA, PFC (GFAP mRNA; [9]): significant changes in GFAP or IBA1 were not detected | GFAP gene expression, NAC (GFAP mRNA; RAP-103 pretreatment + morphine, P<0.05): normalized the augmentation in GFAP gene expression | GFAP mRNA levels, VTA (GFAP mRNA; RAP-103 pretreatment, morphine-naïve and morphine-treated rats, vs drug-naïve, P<0.05): significantly reduced GFAP mRNA levels | IBA1 mRNA levels, NAC (IBA1 mRNA; RAP-103 + morphine vs drug-naïve and morphine by itself, P<0.01): significantly enhanced | IBA1 mRNA, PFC (IBA1 mRNA; [9]): significant changes in GFAP or IBA1 were not detected | IBA1 mRNA levels, VTA (IBA1 mRNA; RAP-103 pretreatment vs drug-naïve, P<0.05): significantly increased IBA1 mRNA levels | microglial mRNA levels, VTA and NAC (IBA1 mRNA; morphine-naïve and morphine-abstinent rats): enhanced microglial mRNA levels | inhibition of chemokine ligand binding, CCR5 (CCR5): at least partially inhibits | inhibition of chemokine ligand binding, CCR8 (CCR8): at least partially inhibits | inhibition of chemokine ligand binding, CXCR4 (CXCR4 [7]): at least partially inhibits | mechanical allodynia (neuropathic pain): attenuate | thermal hyperalgesia (neuropathic pain): attenuate
